Assays:
Meloidogyne incognita = Meloidogyne incognita - test (MELGIN); assay type: in vivo; conditions: 20 ppm; salad seedlings in sand; after 14 days; 100% = no galls found
Protocol: Meloidogyne incognita—test (MELGIN)
Solvent: 125.0 parts by weight of acetone
To produce a suitable preparation of active compound, 1 part by weight of active compound is mixed with the stated amount of solvent, and the concentrate is diluted with water to the desired concentration.
Vessels are filled with sand, a solution of the active ingredient, a suspension containing eggs and larvae of the southern root-knot nematode (Meloidogyne incognita) and salad seeds. The salad seeds germinate and the seedlings grow. Galls develop in the roots.
After 14 days the nematicidal activity is determined on the basis of the percentage of gall formation. 100% means that no galls were found; 0% means the number of galls found on the roots of the treated plants was equal to that in untreated control plants.

Haemonchus contortus = Haemonchus contortus - Test (HAEMCO); assay type: in vivo; conditions: 20 ppm; after 5 days; 100% = all larvae killed
Protocol: Haemonchus contortus—Test (HAEMCO)
(§1) Solvent: dimethyl sulfoxide
(§2) To produce a suitable preparation of active compound, 10 mg of active compound are dissolved in 0.5 ml solvent, and the concentrate is diluted with “Ringer's solution” to the desired concentration.
Approximately 40 larvae of the red stomach worm (Haemonchus contortus) are transferred into a test tube containing compound solution.
After 5 days percentage of larval mortality is recorded. 100% efficacy means all larvae are killed, 0% efficacy means no larvae are killed.

Cooperia curticei = assay type: in vivo; conditions: 20 ppm; after 5 days; 100% = all larvae killed
Protocol: Cooperia curticei—Test (COOPCU)
as §1, §2
Approximately 40 nematode larvae (Cooperia curticei) are transferred into a test tube containing the compound solution.
After 5 days percentage of larval mortality is recorded. 100% efficacy means all larvae are killed; 0% efficacy means no larvae are killed.

[1] = Measurement of log P values by HPLC on reversed phase columns (EEC directive 79/831 Annex V.A8; methods [a] pH 2.3, [b] pH 2.7, [c] pH 7.8); assay type: physicochemical; conditions: for logP: method [b]: LC-MS, pH 2.7, 0.1% formic acid in water / acetonitrile
Boophilus microplus = Boophilus microplus - Injectiontest (BOOPMI Inj); assay type: in vivo; conditions: 20 μg/animal injected into adult engorged female ticks; after 7 days; 100% = all eggs infertile
Protocol: Boophilus microplus—Injectiontest (BOOPMI Inj)
as §1
To produce a suitable preparation of active compound, 10 mg of active compound are dissolved in 0.5 ml solvent, and the concentrate is diluted with solvent to the desired concentration.
Five adult engorged female ticks (Boophilus microplus) are injected with 1 μl compound solution into the abdomen. Ticks are transferred into replica plates and incubated in a climate chamber.
After 7 days the egg deposition of fertile eggs is monitored. Eggs where fertility is not visible are stored in a climate chamber till hatching after about 42 days. An efficacy of 100% means all eggs are infertile; 0% means all eggs are fertile.

[2] = method [b]: LC-MS at pH 2.7, 0.1% formic acid in water / acetonitrile
[3] = method [c]: LC-MS at pH 7.8, 0.001 molar ammonium hydrogen carbonate in water / acetonitrile

Row | Structure (SMILES) | nematicidal activity (percentage of gall formation) (Meloidogyne incognita) | activity (efficacy: larval mortality) (Haemonchus contortus) | activity (efficacy: larval mortality) (Cooperia curticei) | logP [1] | activity (efficacy: egg deposition of fertile eggs) (Boophilus microplus) | log P [1, 2] | log P [1, 3]
1 | COC(c1ccc(Cl)cc1Cl)C(C)NC(=O)c1nccnc1C(F)(F)F (stereo not drawn) [Compound 73] | 100% | 100% | 90% | – | – | – | –
2 | CCC(NC(=O)c1nccnc1C(F)(F)F)C(OC)c1ccc(Cl)cc1Cl (stereo not drawn) [Compound 92] | 90% | – | 90% | 3.99^[b] | – | – | –
3 | COC(CNC(=O)c1nccnc1C(F)(F)F)c1ccc(Cl)cc1Cl (stereo not drawn) [Compound 103] | 90% | – | 90% | 3.35^[b] | 80% | – | –
4 | CCOC(c1ccc(Cl)cc1Cl)C(C)NC(=O)c1nccnc1C(F)(F)F (stereo not drawn) [Compound 107] | 100% | – | 100% | 4.16^[b] | – | – | –
5 | CCOC(c1ccc(Cl)cc1Cl)C(C)NC(=O)c1ccccc1[N+](=O)[O-] (stereo not drawn) [Compound 202] | 90% | 80% | 100% | – | – | 3.83^[b] | 3.80^[c];
6 | COC(c1ccccc1Cl)C(C)NC(=O)c1ccsc1I (stereo not drawn) [Compound 203] | – | 80% | 80% | – | – | 3.53^[b] | 3.53^[c];
7 | CCOC(c1ccc(Cl)cc1Cl)C(C)NC(=O)c1ccsc1I (stereo not drawn) [Compound 205] | – | 90% | 100% | – | – | 4.63^[b] | 4.60^[c];
8 | COC(c1ccccc1Cl)C(C)NC(=O)c1nccnc1C(F)(F)F (stereo not drawn) [Compound 208] | 90% | – | 80% | – | – | 3.11^[b] | 3.10^[c];

— patent publication US20160100579A1, “NEMATICIDAL N-(2-SUBSTITUTED 2-PHENYLETHYL)CARBOXAMIDES AND N-(2-SUBSTITUTED 2-PHENYLETHYL)-THIOCARBOXAMIDES” (priority 2013, published 2016)
